Data as given in patent US20200129509A1, “DOSING REGIMEN” (Cyclacel Limited, priority 2018, published 2020).
Like-named read-outs stand apart in the source and are kept apart here.

Assays:
[1] = test system: AML cell lines; experiment: Combination of CNDAC with hypomethylating agents in AML cell lines; assay type: cell-based; conditions: more apparent if cells are treated with hypomethylating agents first
Description: Previous studies by the applicant have shown that in AML cell lines, the active metabolite of sapacitabine, CNDAC, is synergistic with hypomethylating agents and the synergy is more apparent if cells are treated with hypomethylating agents first. The present invention relates to the identification of new and previously undefined subgroups of AML patients for which treatment with an alternating regimen of sapacitabine and decitabine is particularly effective.

[2] = test system: AML patients
Description: For 482 patients randomized to receive decitabine/sapacitabine (n=241) vs. decitabine only (n=241), randomization was stratified by the presence of antecedent MDS or MPN, peripheral white blood cell count (WBC <10,000 vs. ≥10,000) and bone marrow blast percentage (≥50% vs. <50%).

[3] = test system: colon cancer; conditions: model of colon cancer; cited from earlier work
[4] = test system: patients with a variety of cancers; conditions: phase I, humans; cited from earlier work
[5] = test system: cell line that is resistant to cytarabine; conditions: cited from earlier work
[6] = Antecedent MDS/MPN No and WBC ≥10,000
[7] = Antecedent MDS/MPN Yes and WBC <10,000
[8] = SWOG Not unfavourable and WBC <10,000
[9] = SWOG Unfavourable and WBC ≥10,000
[10] = all randomized patients (n=241 per arm)

N#C[C@H]1[C@H](O)[C@@H](CO)O[C@H]1n1ccc(N)nc1=O [CNDAC, 2′-C-cyano-2′-deoxy-1-β-D-arabino-pentofuranosyl cytosine]
interaction with hypomethylating agents [1]: synergistic

Nc1ncn([C@H]2C[C@H](O)[C@@H](CO)O2)c(=O)n1 [Decitabine, 4-amino-1-(2-deoxy-β-D-erythro-pentofuranosyl)-1,3,5-triazin-2(1H)-one]
1-year survival [2, 6]: 36.7% | CR rate [2, 6]: 18.4% | Median overall survival [2, 6]: 5.5 months | 1-year survival [2, 7]: 27.5% | CR rate [2, 7]: 2.5% | Median overall survival [2, 7]: 4.9 months | 1-year survival ([2]; Antecedent MDS/MPN: No): 35.5% | CR median duration ([2]; Antecedent MDS/MPN: No): 10.4 months | CR rate ([2]; Antecedent MDS/MPN: No): 12.9% | Median overall survival ([2]; Antecedent MDS/MPN: No): 6.7 months | 1-year survival ([2]; Antecedent MDS/MPN: Yes): 32.9% | CR median duration ([2]; Antecedent MDS/MPN: Yes): 7.1 months | CR rate ([2]; Antecedent MDS/MPN: Yes): 5.7% | Median overall survival ([2]; Antecedent MDS/MPN: Yes): 5.0 months | 1-year survival [2, 8]: 31.8% | CR rate [2, 8]: 5.7% | Median overall survival [2, 8]: 5.6 months | 1-year survival [2, 9]: 30.0% | CR rate [2, 9]: 0% | Median overall survival [2, 9]: 3.0 months | 1-year survival ([2]; SWOG category Not Unfavourable): 35.9% | CR rate ([2]; SWOG category Not Unfavourable): 11.6% | Median overall survival ([2]; SWOG category Not Unfavourable): 5.7 months | 1-year survival ([2]; SWOG category Unfavourable): 33.0% | CR rate ([2]; SWOG category Unfavourable): 9.6% | Median overall survival ([2]; SWOG category Unfavourable): 5.7 months | Patients aged 80 and over, median overall survival ([2]; aged 80 and over, <10,000 WBC): 4.2 months | Median overall survival [2, 10]: 5.7 months | patients achieved CR [2, 10]: 10.8% | 1-year survival ([2]; patients with <10,000 WBC): 32.9% | CR median duration ([2]; patients with <10,000 WBC): 10.4 months | CR rate ([2]; patients with <10,000 WBC): 8.6% | Median overall survival ([2]; patients with <10,000 WBC): 5.8 months | 1-year survival ([2]; patients with ≥10,000 WBC): 38.5% | CR median duration ([2]; patients with ≥10,000 WBC): 10.1 months | CR rate ([2]; patients with ≥10,000 WBC): 15.2% | Median overall survival ([2]; patients with ≥10,000 WBC): 5.5 months

CCCCCCCCCCCCCCCC(=O)Nc1ccn([C@@H]2O[C@H](CO)[C@@H](O)[C@@H]2C#N)c(=O)n1 [Sapacitabine, 1-(2-C-cyano-2-deoxy-β-D-arabino-pentofuranosyl)-N^4-palmitoyl cytosine]
anticancer activity [3]: strong anticancer activity | increasing survival and preventing spread of colon cancer metastases to the liver, compared with gemcitabine or 5-FU [3]: superior to either gemcitabine or 5-FU | dose-limiting toxicity [4]: myelosuppression | tolerability [4]: well tolerated

Nc1ccn([C@@H]2O[C@H](CO)[C@@H](O)[C@@H]2O)c(=O)n1 [cytarabine]
IC50 ([5]; after 5-azacitidine (dCK upregulation)): 0.55 µM | IC50 ([5]; before 5-azacitidine): 12.5 µM
